Measurements as given in US7872003B2, “Pharmaceutical compounds” (F. Hoffmann-La Roche AG, priority 2005, dated 2011).

Test system: Caco-2 cells
Test: Caco-2 permeability
Format: in vitro ADME
Details: bidirectional Caco-2 assay; values >/=1.0 indicate active cellular efflux
Protocol: (iii) Caco-2 Permeability
Caco-2 cells were seeded onto Millipore Multiscreen plates at 1×10^5 cells/cm^2, and were cultured for 20 days. Assessment of compound permeability was subsequently conducted. The compounds were applied to the apical surface (A) of cell monolayers and compound permeation into the basolateral (B) compartment was measured. This was performed in the reverse direction (B−A) to investigate active transport. A permeability coefficient value, Papp, for each compound, a measure of the rate of permeation of the compound across the membrane, was calculated. Compounds were grouped into low (Papp</=[…]) or high (Papp>/=[…]) absorption potential based on comparison with control compounds with established human absorption.
For assessment of a compound's ability to undergo active efflux, the ratio of basolateral (B) to apical (A) transport compared with A to B was determined. Values of B−A/A−B>/=1.0 indicated the occurrence of active cellular efflux. All of the compounds tested through the Caco-2 permeability screen had Papp values>/=1.0×10^6 cm/s.

In the case of `CN1CCN(Cc2cc3nc(-c4cccc(O)c4)nc(N4CCOCC4)c3s2)CC1` [PI540], the “B−A/A−B asymmetry index” value is reported as “less than 1.0”.
